# Experimental data published in patent US10793514B2, “Glutamine transport inhibitors and methods for treating cancer” (Vanderbilt University, priority 2016, dated 2020).
# “Also recorded” adds a separate entry of the source.
# Legend:
# HCC1806 cells = assay: Fluorescence redox ratio imaging; assay type: cell-based, human; settings: 10 μM, 48 h
# Description: HCC1806 cells were plated on 35-mm glass-bottom petri dishes for imaging (MatTek Corp). Fluorescence intensity and lifetime images were acquired using a custom-built multiphoton fluorescence lifetime system (Bruker), with a 40× oil-immersion objective (1.3 NA) and an inverted microscope (TiE, Nikon). A titanium:sapphire laser (Chameleon Ultra II, Coherent) was tuned to 750 nm for two-photon excitation of NAD(P)H and tuned to 890 nm for two-photon excitation of FAD. A 440/80 nm bandpass filter was used to collect NAD(P)H fluorescence emission, and a 550/100 nm was used to collect FAD emission. […] A GaAsP PMT (H7422P-40, Hamamatsu) detected emitted photons. […] Time-correlated single photon counting electronics (SPC-150, Becker and Hickl) were used to acquire fluorescence decay curves. […] Fluorescence lifetime validation was performed by imaging a fluorescent bead (Polysciences Inc) and confirming that the measured lifetime (2.1 ns) agreed with previously published values^22. […]
# An automated cell segmentation routine was written using CellProfiler to identify individual cell cytoplasms and extract average fluorescence intensity and fluorescence lifetime values for each cell in the field of view. Intensity values for each pixel were calculated by integrating the decay curve for each pixel. […]
# ASCT1 (SLC1A4) = ASCT1 (SLC1A4) (Mus musculus (Mouse), UniProt O35874); assay: Drug Affinity Responsive Target Stability (DARTS) assay, ASCT1; assay type: binding; settings: thermolysin
# Description: DARTS was carried out as previously described^15 using T-REx-293 cells with tetracycline-inducible expression of ASCT2 or lysate from 115 mg of homogenized mouse brain for ASCT1. […] Lysates were then incubated at room temperature with the protease Thermolysin (1:100 and 1:200 total enzyme to total substrate) for 30 min. ASCT2 was measured by immunoblotting (ASCT2 antibody: Millipore ABN73; ASCT1 antibody: Cell Signaling 8442).
# HCC1806 xenografts = assay: HCC1806 xenograft 10-day exposure study; assay type: in vivo, mouse; settings: 75 mg/kg per day, 10 days
# Description: Tissues were sectioned (5 μm thickness) and stained for pS6 (Cell Signaling, #4858) and caspase 3 (Cell Signaling #9661). Tissue slides were imaged at 20× magnification.
# For in vivo studies, cell-line xenograft tumors were propagated in 6-week old, female athymic nude mice from immortalized cell lines. For HCC-1806 (10×10^6 cells), HCT-116 (5×10^6), and HT29 (10×10^6) cells were injected. Palpable tumors were typically visible within 2-3 weeks. For imaging studies (HCC-1806), tumors were propagated to approximately 500 mm^3. For treatment studies (HCT-116, HT29) tumors were propagated to approximately 200 mm^3 prior to therapy and were randomly assigned into treated and untreated cohorts. For generating the PDX, primary tumor tissue was obtained form a patient at Vanderbilt University Medical Center under an IRB approved protocol. The tumor tissue was genotyped within the VANTAGE core facility. Xenograft was generated as previously described 41. Briefly, tumor tissues were sectioned into approximately 125 cubic millimeter pieces then implanted subcutaneously without further manipulation. […] Tumor volumes were measured manually using calipers every third day and quantified using the formula V=W·L·(H/2).
# [1] = Tolerability in chronic exposure studies (body mass, liver pathology); assay type: in vivo, mouse; settings: 75 mg/kg per day, 21 days, vs vehicle
# [2] = system: activated CD8-positive T-cells; assay: Viability and activation of CD8-positive T-cells; assay type: cell-based, mouse; settings: 96 hrs
# Description: CD8+ cells were isolated from the spleens of 8-12 week old C57BL6 mice on standard chow from Jackson Labs maintained under IACUC approved protocols. CD8+ cells were stained using the proliferative dye Cell Trace Violet (LifeTech) before stimulation as per manufacturer's protocol. Cells were stimulated on 5 ug/mL anti-CD3/CD28-coated plates in media containing IL-2 (‘activated’, 10 ng/mL), or in tissue-culture treated plates in media containing IL-7 (‘naive’, 1 ng/mL) for up to 7 days. Cells were removed at each day described for viability, cell counts, proliferation, and surface markers of activation. Cell surface markers used were CD62L-FITC and APC, CD44-PECy5 and CD25-PE. All data were acquired in triplicate on a MacsQuant Analyzer (Miltenyi Biotec) and analyzed using FlowJo V10 (TreeStar software).
# ASCT2 = ASCT2 (Homo sapiens (Human), UniProt Q15758); assay: Drug Affinity Responsive Target Stability (DARTS) assay, ASCT2; settings: tetracycline-inducible ASCT2 HEK293 cells; 50, 100, 200 μM
# ASCT2, sequence (Q15758 whole entry): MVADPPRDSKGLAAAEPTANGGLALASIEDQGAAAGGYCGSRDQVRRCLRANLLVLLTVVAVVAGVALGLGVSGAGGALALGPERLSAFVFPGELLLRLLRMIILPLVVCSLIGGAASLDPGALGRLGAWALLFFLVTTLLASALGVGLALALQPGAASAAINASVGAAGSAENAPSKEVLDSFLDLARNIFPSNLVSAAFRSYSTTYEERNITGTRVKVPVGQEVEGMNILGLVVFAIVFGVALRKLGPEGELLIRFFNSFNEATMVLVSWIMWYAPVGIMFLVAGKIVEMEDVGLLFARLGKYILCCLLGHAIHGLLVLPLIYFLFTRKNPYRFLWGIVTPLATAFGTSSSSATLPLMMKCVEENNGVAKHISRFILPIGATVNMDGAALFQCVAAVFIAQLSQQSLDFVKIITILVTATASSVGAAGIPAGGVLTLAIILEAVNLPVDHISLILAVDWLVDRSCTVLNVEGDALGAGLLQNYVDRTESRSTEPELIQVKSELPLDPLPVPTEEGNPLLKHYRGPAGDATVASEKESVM
# ASCT1 (SLC1A4), sequence (O35874 whole entry): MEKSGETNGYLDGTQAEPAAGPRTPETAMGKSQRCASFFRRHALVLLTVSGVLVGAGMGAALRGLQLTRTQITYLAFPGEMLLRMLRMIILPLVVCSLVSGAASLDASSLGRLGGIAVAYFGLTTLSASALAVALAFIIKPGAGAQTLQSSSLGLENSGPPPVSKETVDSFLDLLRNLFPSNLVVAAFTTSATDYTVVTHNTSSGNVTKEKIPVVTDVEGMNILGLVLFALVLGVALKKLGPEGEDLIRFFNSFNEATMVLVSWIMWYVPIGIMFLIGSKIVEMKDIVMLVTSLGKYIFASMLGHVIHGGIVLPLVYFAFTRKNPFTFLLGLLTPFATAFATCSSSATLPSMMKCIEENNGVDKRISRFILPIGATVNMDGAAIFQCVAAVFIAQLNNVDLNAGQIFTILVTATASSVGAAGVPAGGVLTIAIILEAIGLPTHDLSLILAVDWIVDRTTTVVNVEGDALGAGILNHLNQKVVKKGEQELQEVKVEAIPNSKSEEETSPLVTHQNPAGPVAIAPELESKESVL
smiles,measurement,setting,value
Cc1cccc(COc2ccccc2CN(CCC(N)C(=O)O)Cc2ccccc2OCc2cccc(C)c2)c1 (stereo not drawn) [Compound V-9302],fluorescent lifetimes of NAD(P)H and FAD,HCC1806 cells,decreased the fluorescent lifetimes of both NAD(P)H and FAD
same,stabilization of ASCT1,ASCT1 (SLC1A4),not stabilized
same,tumor growth,HCC1806 xenografts,tumor growth arrest
same,tumor response markers,HCC1806 xenografts,"elevated LC3B and cleaved caspase 3, along with decreased pAKT (Ser473) and pS6"
same,liver pathology,"[1]; athymic nude mice, H&E",similar; also recorded: no discernible difference
same,weight loss,[1]; chronic exposure,no significant weight loss
same,T-cell activation,[2]; CD44 expression,not impaired
same,T-cell viability,"[2]; in vitro, relative to vehicle",unchanged relative to vehicle
same,protection of ASCT2 from proteolysis (thermolysin),ASCT2,protected from proteolysis in a V-9302 concentration-dependent manner
